Paper PMC5007552, “The hVps34‐SGK3 pathway alleviates sustained PI3K/Akt inhibition by stimulating mTORC1 and tumour growth” (The EMBO Journal, 2016)
Several values for one entry are separate records, joined by “and”; a condition that tells them apart may be missing. Equal entries are not always repeated.

Tested on: ZR-75-1 cells
Experiment: NanoString human kinome mRNA quantification
Assay type: cell-based
Description: Human mRNAs were hybridised to NanoString human kinome and control code sets, then subjected to quantification using NanoString software. […] To permit data compaction, and simple kinome‐wide comparisons, the fold changes are log2 transformed. […] Cell pellets were resuspended at a concentration of ~6,500 cells/μl in RLT buffer (Qiagen). […] For total copy numbers, triplicate normalised count values were averaged, and to calculate fold induction, means were divided by triplicate mean values from matched DMSO controls. P‐values were calculated using unpaired t‐test (GraphPad Prism software) by employing treated and control count data for each kinase mRNA.

SMILES: NC1(c2ccc(-c3nc4ccn5c(=O)[nH]nc5c4cc3-c3ccccc3)cc2)CCC1 [MK-2206]
- BRD4 Normalised counts (BRD4 mRNA, single replicates): 2584.75 and 2591.35 and 2590.29
- BRDT Average normalised counts (BRDT mRNA, average of 3 replicates): 1
- BRDT Normalised counts (BRDT mRNA, single replicates): 1
- BRSK1 Average normalised counts (BRSK1 mRNA, average of 3 replicates): 145.583
- BRSK1 Normalised counts (BRSK1 mRNA, single replicates): 127.82 and 151.05 and 157.88
- BRSK2 Average normalised counts (BRSK2 mRNA, average of 3 replicates): 4.607
- BRSK2 Normalised counts (BRSK2 mRNA, single replicates): 2.39 and 5.97 and 5.46
- BTK Average normalised counts (BTK mRNA, average of 3 replicates): 1
- BTK Normalised counts (BTK mRNA, single replicates): 1
- BUB1B Average normalised counts (BUB1B mRNA, average of 3 replicates): 1729.87
- BUB1B Normalised counts (BUB1B mRNA, single replicates): 1717.6 and 1711.31 and 1760.7
- BUB1 Average normalised counts (BUB1 mRNA, average of 3 replicates): 648.95
- BUB1 Normalised counts (BUB1 mRNA, single replicates): 644.12 and 665.35 and 637.38
- C9orf96 Average normalised counts (C9orf96 mRNA, average of 3 replicates): 2.773
- C9orf96 Normalised counts (C9orf96 mRNA, single replicates): 1 and 4.24 and 3.08
- C21orf7 Average normalised counts (C21orf7 mRNA, average of 3 replicates): 1
- C21orf7 Normalised counts (C21orf7 mRNA, single replicates): 1
- CAMK1D average normalised counts (CAMK1D mRNA): 339.763
- CAMK1D normalised counts (replicates) (CAMK1D mRNA): 364.15 and 317.85 and 337.29
- CAMK1G average normalised counts (CAMK1G mRNA): 1
- CAMK1G normalised counts (replicates) (CAMK1G mRNA): 1
- CAMK1 average normalised counts (CAMK1 mRNA): 4.053
- CAMK1 normalised counts (replicates) (CAMK1 mRNA): 4.2 and 2.5 and 5.46
- CAMK2A average normalised counts (CAMK2A mRNA): 1
- CAMK2A normalised counts (replicates) (CAMK2A mRNA): 1
- CAMK2B average normalised counts (CAMK2B mRNA): 228.397
- CAMK2B normalised counts (replicates) (CAMK2B mRNA): 211.86
- CAMK2D average normalised counts (CAMK2D mRNA): 829.067
- CAMK2D normalised counts (replicates) (CAMK2D mRNA): 815.91 and 824.33 and 846.96
- CAMK2G average normalised counts (CAMK2G mRNA): 2774.38
- CAMK2G normalised counts (replicates) (CAMK2G mRNA): 2695.65 and 2845.89 and 2781.61
- CAMK4 average normalised counts (CAMK4 mRNA): 3.433
- CAMK4 normalised counts (replicates) (CAMK4 mRNA): 4.2 and 5.1 and 1
- CAMKK1 average normalised counts (CAMKK1 mRNA): 313.75
- CAMKK1 normalised counts (replicates) (CAMKK1 mRNA): 326.89 and 314.38 and 299.98
- CAMKK2 average normalised counts (CAMKK2 mRNA): 584.02
- CAMKK2 normalised counts (replicates) (CAMKK2 mRNA): 568.67 and 607.14 and 576.25
- CAMKV average normalised counts (CAMKV mRNA): 1.5
- CAMKV normalised counts (replicates) (CAMKV mRNA): 1 (2×) and 2.5
- CASK average normalised counts (CASK mRNA): 727.217
- CASK normalised counts (replicates) (CASK mRNA): 714.11 and 680.12 and 787.42
- CCL2 average normalised counts (CCL2 mRNA): 6.427
- CCL2 normalised counts (replicates) (CCL2 mRNA): 9.66 and 3.37 and 6.25
- CDC7 average normalised counts (CDC7 mRNA): 336.743
- CDC7 normalised counts (replicates) (CDC7 mRNA): 335.98 and 336.96 and 337.29
- CDC42BPA average normalised counts (CDC42BPA mRNA): 675.63
- CDC42BPA normalised counts (replicates) (CDC42BPA mRNA): 678.66 and 677.51 and 670.72
- CDC42BPB average normalised counts (CDC42BPB mRNA): 1143.02
- CDC42BPB normalised counts (replicates) (CDC42BPB mRNA): 1097.69 and 1178.77 and 1152.6
- CDC42BPG average normalised counts (CDC42BPG mRNA): 104.73
- CDC42BPG normalised counts (replicates) (CDC42BPG mRNA): 110.55 and 108.48 and 95.16
- CDK1 average normalised counts (CDK1 mRNA): 3517.89
- CDK1 normalised counts (replicates) (CDK1 mRNA): 3504.63 and 3450.53 and 3598.5
- CDK2 average normalised counts (CDK2 mRNA): 369.187
- CDK2 normalised counts (replicates) (CDK2 mRNA): 366.88 and 370.84 and 369.84
- CDK3 average normalised counts (CDK3 mRNA): 56.79
- CDK3 normalised counts (replicates) (CDK3 mRNA): 49.65 and 58.1 and 62.62
- CDK4 average normalised counts (CDK4 mRNA): 2610.07
- CDK4 normalised counts (replicates) (CDK4 mRNA): 2590.21 and 2633.05 and 2606.96
- CDK5 average normalised counts (CDK5 mRNA): 1339.04
- CDK5 normalised counts (replicates) (CDK5 mRNA): 1332.2 and 1264.78 and 1420.13
- CDK6 average normalised counts (CDK6 mRNA): 35.6167
- CDK6 normalised counts (replicates) (CDK6 mRNA): 34.2 and 34.64 and 38.01
- CDK7 average normalised counts (CDK7 mRNA): 605.207
- CDK7 normalised counts (replicates) (CDK7 mRNA): 585.94 and 619.3 and 610.38
- CDK8 average normalised counts (CDK8 mRNA): 908.99
- CDK8 normalised counts (replicates) (CDK8 mRNA): 898.63 and 942.48 and 885.86
- CDK9 average normalised counts (CDK9 mRNA): 879.65
- CDK9 normalised counts (replicates) (CDK9 mRNA): 853.18 and 899.91 and 885.86
- CDK10 average normalised counts (CDK10 mRNA): 437.29
- CDK10 normalised counts (replicates) (CDK10 mRNA): 440.51 and 431.66 and 439.7
- CDK11A average normalised counts (CDK11A mRNA): 420.55
- CDK11A normalised counts (replicates) (CDK11A mRNA): 435.96 and 389.96 and 435.73
- CDK12 average normalised counts (CDK12 mRNA): 928.887
- CDK12 normalised counts (replicates) (CDK12 mRNA): 909.53 and 946.82 and 930.31
- CDK13 average normalised counts (CDK13 mRNA): 1530.42
- CDK13 normalised counts (replicates) (CDK13 mRNA): 1564.9 and 1505.42 and 1520.95
- CDK14 average normalised counts (CDK14 mRNA): 158.347
- CDK14 normalised counts (replicates) (CDK14 mRNA): 151.46 and 173.64 and 149.94
- CDK15 average normalised counts (CDK15 mRNA): 1
- CDK15 normalised counts (replicates) (CDK15 mRNA): 1
- CDK16 average normalised counts (CDK16 mRNA): 3907.09
- CDK16 normalised counts (replicates) (CDK16 mRNA): 3890.94 and 3866.66 and 3963.68
- CDK17 average normalised counts (CDK17 mRNA): 1410.09
- CDK17 normalised counts (replicates) (CDK17 mRNA): 1395.83 and 1406.38 and 1428.07
- CDK18 average normalised counts (CDK18 mRNA): 99.86
